Assay results as given in patent EP3650451A1, “COMPOUNDS AND THEIR USES AS FLUORESCENT PROBES” (Consejo Superior de Investigaciones Cientificas, priority 2017, dated 2019).

What was measured:
SCC38 cells [1] = test: Stereospecificity of the mitochondrial labeling, flow cytometry; format: cell-based, human; details: all the selected concentrations, 30 min incubation
Description: • Fig. 1. In vivo labeling of SCC38 cells with compound 4 at different concentrations (50, 100 and 500 nM). Scale bar: 10 µm • Fig. 2. Flow cytometry studies in SCC38 and HeLa cell lines labeled with compound 4 and Mito Tracker® Red. Histograms wherein fluorescence intensity vs number of events is represented for each of the staining times (5, 15 and 30 min) and control (Ctrl), for the SCC38 and HeLa cells and for each of the two markers. • Fig. 3. Absorption (A) and fluorescence (B) spectra, normalized to molar absorption and fluorescence quantum yield of probe 4 in different solvents; chloroform (green), acetone (black), acetonitrile (red), ethanol (blue) and water (gray). • Fig. 4. […] (A) Flow cytometry analysis of SCC38 cells incubated in the presence (+FCCP) or absence (-FCCP) of FCCP 60 µM for 3 h before staining with 20 nM of 4 or 0.5 nm of MitoTracker. The data represent the mean fluorescence intensity (MFI) of the stained cells. […] The graphs show the fluorescence profiles of the regions of interest indicated with white lines in the right-hand panels. […] The data represent the mean fluorescence intensity (MFI) of the stained cells (upper panels) and representative images of the cytometry profiles (lower panels). • Fig. 7. […] (B) The data represent the mean fluorescence intensity (MFI) of the labeled cells. […]

[2] = Stability in water: time evolution in D2O followed by 1H NMR (hydrolysis); format: physicochemical; details: 15 mM solution in D2O at 25 °C, read-out: t1/2 (hydrolysis) (converted)
Description: One of the critical factors that conditions the viability and applicability of functional dyes 3 and 4 as fluorescent mitochondrial probes is their stability in water, since these compounds contain two potentially labile B-O bonds linking the fluorophore with the carnitine substituent. This stability was determined analyzing the time evolution of 3 and 4 in a 15 mM solution in D2O at 25 °C using ^1H NMR. This technique makes it possible not only to define their stability, but also to identify the possible degradation products (Diagram 2). Both probes are hydrolyzed, generating free carnitine and the corresponding 4,4-dihydroxy-BODIPY derivatives 5 and 6. [drawing 8]
Compound 3 is quickly hydrolyzed (t1/2 = 10 min); however, the greater substitution of the tetramethylated derivative in 4 gives it greater stability (t1/2 = 6 h), which promotes its use as a fluorescent marker in live cells. Contrary to what might be believed, the generation of free carnitine and of the corresponding BODIPY derivatives 5 and 6 at physiological pH is, indeed, an advantage for its application in cell labels. Thus, (R)-carnitine is incorporated into the mitochondrial metabolism, while the boron of the hydrolyzed BODIPY can covalently bond to poly-hydroxilated molecules (for example, saccharides and glycoproteins), generating cyclic boronic esters. […]

[3] = Photophysical characterization: absorption and fluorescence spectra; format: physicochemical
Description: The photophysical characterization of probes 3 and 4 was carried out analyzing the corresponding absorption and fluorescence spectra in the UV-visible region of the spectrum.
Its photophysical behavior is dependent on the degree of substitution of the BODIPY, since the alkylation of the chromatophore induces sufficient steric hindrance to reduce the free rotation of the 8-mesityl group, a process that entails a significant reduction in fluorescence efficiency. Thus, probe 4 in water stands out for having a high molar absorption coefficient (3.8 × 10^4 M^-1 cm^-1 at 499 nm) and a very efficient fluorescence emission at 511 nm, with a quantum yield of up to 80%.

SCC38 = test: Kinetics of cell labeling by flow cytometry; format: cell-based, human; details: SCC38, 50 nM, staining times 5, 15 and 30 min
Description: (§1) The cell assays were carried out on two human cell lines: SCC38 and HeLa. The SCC38 line is derived from human laryngeal epidermoid carcinoma patients, while HeLa, the first human cell line established in culture, is derived from cervical cancer. The culture medium used for both cell lines was DMEM (Dulbecco's Modified Eagle's Medium) supplemented with 10% of fetal bovine serum (FBS), 100 U/mL of penicillin, 200 µg/mL of streptomycin, 100 µmol/L of non-essential amino acids and 2 mmol/L of glutamine. The cultures were incubated at 37 °C and 5% of CO2.
(§2) The kinetics of cell labeling with 4 was studied by flow cytometry with the SCC38 and HeLa cell lines, using MitoTracker® Red as a control marker, both at a concentration of 50 nM. The staining times studied were 5, 15, 30 and 45 minutes. After staining, the medium was removed, washed with PBS, trypsinized and the pellet was resuspended in 500 µL of PBS and introduced in the cytometer after filtration. A Beckman Coulter Cytomics FC500 Flow Cytometry Analyzer was used (Scientific-Technical Services, Universidad de Oviedo). Part of the resuspended cells were also plated and observed under the microscope.

HeLa = test: Kinetics of cell labeling by flow cytometry; format: cell-based, human; details: 50 nM, staining times 5, 15 and 30 min
Description: as §1, §2

SCC38 cells [4] = test: Labeling in the presence of FCCP (depolarized mitochondrial membrane), flow cytometry; format: cell-based, human; details: 60 µM FCCP for 3 h at 37 °C before staining; 20 nM of 4 or 0.5 nM of MitoTracker
Description: • Fig. 1. In vivo labeling of SCC38 cells with compound 4 at different concentrations (50, 100 and 500 nM). Scale bar: 10 µm • Fig. 2. Flow cytometry studies in SCC38 and HeLa cell lines labeled with compound 4 and Mito Tracker® Red. Histograms wherein fluorescence intensity vs number of events is represented for each of the staining times (5, 15 and 30 min) and control (Ctrl), for the SCC38 and HeLa cells and for each of the two markers. • Fig. 3. Absorption (A) and fluorescence (B) spectra, normalized to molar absorption and fluorescence quantum yield of probe 4 in different solvents; chloroform (green), acetone (black), acetonitrile (red), ethanol (blue) and water (gray). • Fig. 4. […] (A) Flow cytometry analysis of SCC38 cells incubated in the presence (+FCCP) or absence (-FCCP) of FCCP 60 µM for 3 h before staining with 20 nM of 4 or 0.5 nm of MitoTracker. The data represent the mean fluorescence intensity (MFI) of the stained cells. (B) Microscopy analysis of SCC38 cells pretreated or not with FCCP before co-staining with 20 nM of 4 and 0.5 nm of MitoTracker. The graphs show the fluorescence profiles of the regions of interest indicated with white lines in the right-hand panels. Scale bars: 10 µm). • Fig. 5. […] The data represent the mean fluorescence intensity (MFI) of the stained cells (upper panels) and representative images of the cytometry profiles (lower panels). • Fig. 7. […] (B) The data represent the mean fluorescence intensity (MFI) of the labeled cells.
The labeling was analyzed by flow cytometry in the presence of carbonyl cyanide-p-(trifluoromethoxy)phenylhydrazone (FCCP), a protonophore used to reduce the mitochondrial membrane potential (ΔΨm) through depolarization of the mitochondrial membrane. […] Indeed, the suppression of dye-mitochondria electrostatic attraction as a passive labeling mechanism reduces the concentration of the dye in the cell organelle and, thus, the probability and extent of the fluorescence deactivation processes, with the ensuing increase in their efficiency. […]

SCC38 cells [5] = test: Inhibition of mitochondrial staining by (R)-palmitoylcarnitine (CACT substrate), flow cytometry; format: cell-based, human; details: co-incubation, probe 50 nm, (R)-palmitoylcarnitine 100, 250 and 500 nM
Description: The SCC38 cells were co-incubated with the indicated concentrations of (R)-palmitoylcarnitine and 50 nM of 4 (A) or 50 nM of MitoTracker (B) before analyzing by flow cytometry. The data represent the mean fluorescence intensity (MFI) of the stained cells (upper panels) and representative images of the cytometry profiles (lower panels). • Fig. 7.
To test if CACT was in fact involved in the channeling of 4 to the mitochondrial matrix, we firstly studied the effect of (R)-(+)-palmitoylcarnitine, a natural CACT substrate, in cell labeling by 4.

SCC38 cells [6] = test: Co-localization by co-staining with MitoTracker Red, fluorescence microscopy of live cells; format: cell-based, human; details: co-staining, compound 4 50 nM, MitoTracker® Red 25 nM, 30 minutes
Description: as §1
These cell lines were stained with the fluorescent probes synthesized following the following protocol: 30,000-50,000 SCC38 cells were plated on 24-well glass-bottomed plates and cultured to 70% confluence. The culture medium was then removed from the well and washed at least three times with DMEM medium without additives. Next, 1 mL of DMEM and the corresponding fluorescent compound was added to the well. The cells were incubated at 37 °C for 30 minutes, after which the medium was removed and newly washed with DMEM. Lastly, complete medium was added and the cells were observed under the microscope. Microscopy analysis was performed using a Zeiss Axio Observer Z1 microscope with AxioCam MRM and ApoTome 2 (Carl Zeiss, Germany) with different 40X 63X oil immersion objectives. The cells were also stained with MitoTracker® Red CMXRos (Thermo Fisher), following the manufacturer's instructions, with the aim of carrying out comparative studies with the new fluorescent markers synthesized herein. Initially, both compounds 3 and 4 were used at a concentration of 50 nM, and staining time was also 30 minutes.
In order to confirm the specificity of the mitochondrial labeling, co-localization studies were carried out by co-staining with the commercial mitochondrial marker MitoTracker® Red in the cell line. Compound 4 was used at a concentration of 50 nM and MitoTracker® Red at 25 nM. Both compounds were added simultaneously and incubated for 30 minutes.

CC1=CC(C)=[N+]2C1=C(c1c(C)cc(C)cc1C)c1c(C)cc(C)n1[B-]21OC(=O)C[C@@H](C[N+](C)(C)C)O1 (stereo partly drawn) [(S)-4]
fluorescence intensity compared with 4 (SCC38 cells [1]): considerably lower

Cc1cc(C)c(C2=C3C=CC=[N+]3[B-]3(OC(=O)C[C@H](C[N+](C)(C)C)O3)n3cccc32)c(C)c1 (stereo partly shown) [Compound 3]
half-life at 15000 µM [2]: 10 min | kfl: Radiative decay constant ([3]; Water): 0.66 10^8s^- 1 | knr: Non-Radiative decay constant ([3]; Water): 1.00 10^8s^- 1 | Δv: Stokes shift ([3]; Water): 542 cm⁻¹ | εmax: Molar extinction coefficient at the absorption peak ([3]; Water): 4.1 × 10^4 (M^-1 cm^- 1) | λab: Absorption peak wavelength ([3]; Water): 501 nm | τ: Fluorescence lifetime ([3]; Water): 6.00 ns | λfl: Fluorescence peak wavelength ([3]; Water, excitation at 490 nm): 515 nm | φf: Quantum yield ([3]; Water, reference PM567 in ethanol): 0.40 | tendency towards H- or J- type aggregation ([3]; concentrations as high as 10^-4 M): not exhibit any tendency towards H- or J- type aggregation

ClCc1ccc(C2=c3cc4c5c(c3Oc3c2cc2c6c3CCCN6CCC2)CCC[N+]=5CCC4)cc1 [MitoTracker® Red, reference compound]
change of staining intensity with incubation time (SCC38): barely varied upon increasing incubation time | change of staining intensity with incubation time (HeLa): barely varied upon increasing incubation time | mitochondrial fluorescence of cells treated with FCCP (SCC38 cells [4]): highly attenuated mitochondrial fluorescence | effect of (R)-palmitoylcarnitine on fluorescence intensity (SCC38 cells [5]): only a slight increase of fluorescence | location of the stain in the mitochondria (SCC38 cells [6]): concentrated along the edges of the mitochondria
